Data from US6855730B2, “3-methylidenyl-2-indolinone modulators of protein kinase” (Sugen, Inc., priority 1998, dated 2005).

Molecular target: EGFR (Homo sapiens, UniProt P00533)
Test: Biochemical EGFR assay (ELISA, A431 cell lysate)
Design: A431 cell lysate (Screening Lab, SUGEN, Inc.); host or cells: A431
Conditions: read-out: bio EGFr IC50
How it was run: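 EGFR captured from A431 cell lysate onto anti-EGFR-coated plates, then incubated with test compound for 30 min at room temperature. Tyrosine phosphorylation with ATP/MnCl2 was stopped with EDTA after 5 min and detected by anti-phosphotyrosine ELISA with peroxidase/ABTS read-out.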

Sequence of EGFR (P00533 25-1210): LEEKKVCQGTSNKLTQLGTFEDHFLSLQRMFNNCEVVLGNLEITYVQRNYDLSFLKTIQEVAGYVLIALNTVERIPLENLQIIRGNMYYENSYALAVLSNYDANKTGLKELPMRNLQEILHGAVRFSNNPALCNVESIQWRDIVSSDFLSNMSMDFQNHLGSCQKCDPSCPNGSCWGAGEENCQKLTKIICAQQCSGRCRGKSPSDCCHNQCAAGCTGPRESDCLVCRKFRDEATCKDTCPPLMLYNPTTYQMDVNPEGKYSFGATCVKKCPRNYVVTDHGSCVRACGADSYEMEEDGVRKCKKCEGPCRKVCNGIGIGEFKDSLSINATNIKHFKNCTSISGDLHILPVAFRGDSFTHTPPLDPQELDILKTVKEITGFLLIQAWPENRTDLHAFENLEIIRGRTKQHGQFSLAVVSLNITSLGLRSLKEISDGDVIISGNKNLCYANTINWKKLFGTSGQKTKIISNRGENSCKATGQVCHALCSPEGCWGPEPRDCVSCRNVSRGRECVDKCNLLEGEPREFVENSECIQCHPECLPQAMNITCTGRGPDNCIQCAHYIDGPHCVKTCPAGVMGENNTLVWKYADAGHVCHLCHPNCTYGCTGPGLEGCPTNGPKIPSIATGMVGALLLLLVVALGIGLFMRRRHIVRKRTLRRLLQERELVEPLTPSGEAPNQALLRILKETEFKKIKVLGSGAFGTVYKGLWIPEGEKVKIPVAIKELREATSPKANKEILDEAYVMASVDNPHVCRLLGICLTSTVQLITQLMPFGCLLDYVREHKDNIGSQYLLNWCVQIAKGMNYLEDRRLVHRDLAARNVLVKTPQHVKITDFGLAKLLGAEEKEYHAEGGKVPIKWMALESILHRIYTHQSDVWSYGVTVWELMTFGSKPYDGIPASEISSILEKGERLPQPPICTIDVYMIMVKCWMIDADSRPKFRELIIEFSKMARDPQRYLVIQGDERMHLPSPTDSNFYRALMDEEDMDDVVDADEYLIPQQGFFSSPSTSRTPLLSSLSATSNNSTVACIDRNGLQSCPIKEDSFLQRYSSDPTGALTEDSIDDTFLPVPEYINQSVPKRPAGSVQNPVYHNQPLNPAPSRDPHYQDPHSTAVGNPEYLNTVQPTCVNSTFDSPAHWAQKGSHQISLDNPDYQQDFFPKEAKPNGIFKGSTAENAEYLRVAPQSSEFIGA

SMILES | IC50 [µM]
COc1c(C(C)C)cc(/C=C2/C(=O)Nc3ncccc32)cc1C(C)C [Example 74, 3-(3,5-Diisopropyl-4-methoxybenzylidene)-1,3-dihydropyrrolo[2,3-b]pyridin-2-one] | 13.2
CC1(C)CCc2cc(C=C3C(=O)Nc4ccc(Br)cc43)ccc2O1 (racemic) [Example 34, 5-Bromo-3-(2,2-dimethylchroman-6-ylmethylene)-1,3-dihydroindol-2-one] | > 100
COc1ccc(/C=C2/C(=O)Nc3ccc(Cl)cc32)cc1-c1cccs1 [Example 59, 5-chloro-3-(4-Methoxy-3-thiophen-2-ylbenzylidene)-1,3-dihydroindol-2-one] | > 100
COc1ccc(/C=C2/C(=O)Nc3ncccc32)cc1C1CCCC1 [Example 47, 3-(3-Cyclopentyl-4-methoxybenzylidene)-1,3-dihydropyrrolo[2,3-b]pyridin-2-one] | 36.8
Cc1cc(CCC(=O)O)c(/C=C2\C(=O)Nc3cc(-c4ccc(F)cc4)ccc32)[nH]1 [Example 107, 3-{2-[6-(4-Fluorophenyl)-2-oxo-1,2-dihydroindol-3-ylidenemethyl]-5-methyl-1H-pyrrol-3-yl}propionic acid] | > 100
CCOc1cccc(-c2cc(OC)c(OC)cc2/C=C2/C(=O)Nc3ccccc32)c1 [Example 58, 3-(3′-Ethoxy-4,5-dimethoxybiphenyl-2-ylmethylene)-1,3-dihydroindol-2-one] | > 100
COc1ccc(/C=C2/C(=O)Nc3ccc(Cl)cc32)cc1C1CCCCC1 [Example 51, 5-Chloro-3-(3-cyclohexyl-4-methoxybenzylidene)-1,3-dihydroindol-2-one] | > 100
COc1cc(C=C2C(=O)Nc3ccccc32)c(-c2ccccc2OC)cc1OC [Example 49, 3-(4,5,2′-Trimethoxybiphenyl-2-ylmethylene)-1,3-dihydroindol-2-one] | > 100
COc1ccc(C=C2C(=O)Nc3ccccc32)cc1-c1cccc(NC(C)=O)c1 [Example 29, N-[2′-Methoxy-5′-(2-oxo-1,2-dihydroindol-3-ylidenemethyl)-biphenyl-3-yl]-acetamide] | > 100
CC(C)c1cc(/C=C2/C(=O)Nc3ccc(Br)cc32)cc(C(C)C)c1OCCN1CCOCC1 [Example 57, 5-Bromo-3-[3,5-diisopropyl-4-(2-morpholin-4-ylethoxy)benzylidene]-1,3-dihydroindol-2-one] | > 100
COc1ccc(C=C2C(=O)Nc3cc(NC(C)=O)ccc32)cc1-c1cccc(NC(C)=O)c1 (mixture of isomers) [Example 63, N-[3-(3′-Acetylamino-6-methoxybiphenyl-3-ylmethylene)-2-oxo-2,3-dihydro-1H-indol-6-yl]-acetamide] | > 100
COc1cc(C)c(/C=C2/C(=O)Nc3ccc(F)cc32)cc1C(C)C [Example 30, 5-Fluoro-3-(5-isopropyl-4-methoxy-2-methyl-benzylidene)-1,3-dihydroindol-2-one] | > 100
COc1ccc(/C=C2/C(=O)Nc3ccc(F)cc32)cc1C(C)C [Example 44, 5-Fluoro-3-(3-isopropyl-4-methoxybenzylidene)-1,3-dihydroindol-2-one] | > 100
COc1ccc2c(c1)NC(=O)/C2=C/c1ccc(OC)c(-c2ccsc2)c1 [Example 64, 6-Methoxy-3-(4-methoxy-3-thiophen-3-ylbenzylidene)-1,3-dihydroindol-2-one] | > 100
O=C1Nc2ccc(Cl)cc2/C1=C\c1ccc2c(c1)CCO2 [Example 14, 5-Chloro-3-(2,3-dihydro-benzofuran-5-ylmethylene)-1,3-dihydroindol-2-one] | > 100
CCOc1cccc(-c2cc(C=C3C(=O)Nc4ccccc43)ccc2OC)c1 [Example 46, 3-(3′-Ethoxy-6-methoxybiphenyl-3-ylmethylene)-1,3-dihydroindol-2-one] | > 100
COc1ccc(/C=C2/C(=O)Nc3ccc(F)cc32)cc1-c1ccccc1 [Example 37, 5-Fluoro-3-(6-methoxybiphenyl-3-ylmethylene)-1,3-dihydroindol-2-one] | > 100
COc1ccc(/C=C2/C(=O)Nc3cc(NC(C)=O)ccc32)cc1-c1cccs1 [Example 31, N-[3-(4-Methoxy-3-thiophen-2-ylbenzylidene)-2-oxo-2,3-dihydro-1H-indol-6-yl]-acetamide] | > 100
